Read-outs that look alike come from different tables or passages of the source.
Test system: HT-29 cells
Test: Necrosis assay (TNF-α/Smac mimetic/z-VAD induced necrosis, cell viability by ATP level)
Type: cell-based
Conditions: HT-29, TNF-α + Smac mimetic + z-VAD, 24 hrs, ATP level, read-out: EC50 (inhibition of necrosis in HT-29 cells)
Procedure: HT-29 cells were cultured in McCoy's 5 A culture medium (Invitrogen). On day one, HT-29 cells were plated in 96-well assay plates at density of 2,500-3,500 cells per well. On day two, necrosis were induced by adding 20 ng/ml TNF-α (T), 100 nM Smac mimetic (S), and […] z-VAD (Z). At the same time, […] compound from a chemical library of ˜200,000 compounds was delivered into each well. After 24 hrs treatment, cell viability was determined by measuring ATP level using the CellTiter-Glo Luminescent Cell Viability Assay kit. A CellTiter-Glo Assay (Promega) was performed according to the manufacturer's instructions Luminescence was recorded with a PerkinElmer EnSpire Multimode Plate Reader. Survived cells were normalized to those cells treated with DMSO. Nec-1 was used as a positive control for screening necrosis inhibitors. Data are represented as mean±standard deviation of duplicates
Dose-dependent inhibition of necrosis by the compounds in HT-29 cells were determined by measuring ATP levels as described above.

[1] = Homo sapiens, HT-29, 24 h, values given as ranges in uM

SMILES | EC50 [1] | EC50 (values given as ranges in nM)
CON(Cc1cc(F)c(F)cc1F)C(=O)C(C)(C)C(C)(F)F [Compound S18] | 1 to 100 µM | –
CCC(C)(C)C(=O)N(O)Cc1cc(F)cc(F)c1F [Compound 93, N-hydroxy-2,2-dimethyl-N-(2,3,5-trifluorobenzyl)butanamide] | – | 0.001 to 1 µM
CCC(C)(C)C(=O)N(C)Cc1ccccc1 [Compound 90, N-benzyl-N,2,2-trimethylbutanamide] | – | 0.001 to 1 µM
CCC(C)(C)C(=O)N(C)C(CO)c1ccccc1 (centres unmarked) [Compound 111, N-(2-hydroxy-1-phenylethyl)-N,2,2-trimethylbutanamide] | 1 to 100 µM | –
CCC(C)(C)C(=O)N(C)Cc1cc(C)c(C)s1 [Compound 128, N-((4,5-dimethylthiophen-2-yl)methyl)-N,2,2-trimethylbutanamide] | – | 0.001 to 1 µM
CN(Cc1cc(F)cc(F)c1F)C(=O)C1(C)CC1 [Compound 80, N,1-dimethyl-N-(2,3,5-trifluorobenzyl)cyclopropanecarboxamide] | 1 to 100 µM | –
CCN(Cc1ccc(F)cc1F)C(=O)C(C)(C)CC [Compound 29, N-(2,4-difluorobenzyl)-N-ethyl-2,2-dimethylbutanamide] | 1 to 10 µM | –
CCC(C)(C)C(=O)NCc1cccnc1 [Compound 9, 2,2-dimethyl-N-(pyridin-3-ylmethyl)butanamide] | 1 to 10 µM | –
CCC(C)(C)C(=O)N(C)Cc1c(F)c(F)cc(F)c1F [Compound 51, N,2,2-trimethyl-N-(2,3,5,6-tetrafluorobenzyl)butanamide] | 1 to 10 µM | –
CCC(C)(C)C(=O)N(C)Cc1cccc(OC)c1 [Compound 20, N-(3-methoxybenzyl)-N,2,2-trimethylbutanamide] | 1 to 100 µM | –
CCC(C)(C)C(=O)NC(CO)c1ccccc1 (centres unmarked) [Compound 110, N-(2-hydroxy-1-phenylethyl)-2,2-dimethylbutanamide] | 1 to 100 µM | –
CCC(C)(C)C(=O)N[C@@H](CC(=O)OC)c1ccccc1 [Compound 100, (S)-methyl 3-(2,2-dimethylbutanamido)-3-phenylpropanoate] | 1 to 100 µM | –
CCC(C)(C)C(=O)N(Cc1ccccc1)OC [Compound 151] | 1 to 100 µM | –
CCC(C)(C)C(=O)NCc1ccccc1 [Compound 58, N-benzyl-2,2-dimethylbutanamide] | – | 0.001 to 1 µM
CCC(C)(C)C(=O)NC(C)c1ccccc1 (centres unmarked) [Compound 52, 2,2-dimethyl-N-(1-phenylethyl)butanamide] | 1 to 100 µM | –
CN(Cc1cc(F)c(F)c(F)c1)C(=O)c1c(Cl)cccc1Cl [Compound 129, 2,6-dichloro-N-methyl-N-(3,4,5-trifluorobenzyl)benzamide] | 1 to 100 µM | –
CC(C)(C)C(=O)NCc1cc(F)cc(F)c1F [Compound S1, N-(2,3,5-trifluorobenzyl)pivalamide] | 1 to 10 µM | –
CCC(C)(C)C(=O)N(O)Cc1ccc(F)c(F)c1 [Compound 95, N-(3,4-difluorobenzyl)-N-hydroxy-2,2-dimethylbutanamide] | – | 0.001 to 1 µM
CCC(C)(C)C(=O)N(C)Cc1cccc(C(=O)OC)c1 [Compound 23, methyl 3-((N,2,2-trimethylbutanamido)methyl)benzoate] | 1 to 100 µM | –

SMILES | EC50 [1] | EC50 (values given as ranges in nM)
CC(F)(F)C(C)(C)C(=O)N(O)Cc1ccccc1 [Compound S6, N-benzyl-3,3-difluoro-N-hydroxy-2,2-dimethylbutanamide] | – | 0.001 to 1 µM
CCC(C)(C)C(=O)N(C)Cc1cccc(C#N)c1 [Compound 17, N-(3-cyanobenzyl)-N,2,2-trimethylbutanamide] | – | 0.001 to 1 µM
CCC(C)(C)C(=O)N(C)Cc1ccncc1 [Compound 34, N,2,2-trimethyl-N-(pyridin-4-ylmethyl)butanamide] | 1 to 100 µM | –
CCC(C)(C)C(=O)N[C@@H](C(=O)NCCc1ccccc1)c1ccccc1 [Compound 125, (R)-2,2-dimethyl-N-(2-oxo-2-(phenethylamino)-1-phenylethyl)butanamide] | 1 to 100 µM | –
CCC(C)(C)C(=O)N(O)CC1=CCCC1 [Compound 140] | 1 to 100 µM | –
CN(Cc1cc(F)cc(F)c1F)C(=O)C12CC3CC(CC(C3)C1)C2 [Compound 76, N-methyl-N-(2,3,5-trifluorobenzyl)adamantane-1-carboxamide] | 1 to 100 µM | –
C=CC(C)(C)C(=O)N(O)Cc1sccc1C [Compound 145] | 1 to 100 µM | –
CCN(Cc1cc(F)cc(F)c1F)C(=O)N(C)C(C)C [Compound 115, 1-ethyl-3-isopropyl-3-methyl-1-(2,3,5-trifluorobenzyl)urea] | 1 to 100 µM | –
CCC(C)(C)C(=O)N[C@@H](C(=O)NC)c1ccccc1 [Compound 122, (R)-2,2-dimethyl-N-(2-(methylamino)-2-oxo-1-phenylethyl)butanamide] | 1 to 100 µM | –
CCC(C)(C)C(=O)N(C)Cc1cnc2ccccc2c1 [Compound 47, N,2,2-trimethyl-N-(quinolin-3-ylmethyl)butanamide] | 1 to 100 µM | –
CCC(C)(C)C(=O)N[C@@H](C(=O)N(C)C)c1ccccc1 [Compound 123, (R)—N-(2-(dimethylamino)-2-oxo-1-phenylethyl)-2,2-dimethylbutanamide] | 1 to 100 µM | –
COCC(C)(C)C(=O)N(C)Cc1cc(F)c(F)c(F)c1 [Compound 71, 3-methoxy-N,2,2-trimethyl-N-(3,4,5-trifluorobenzyl)propanamide] | 1 to 100 µM | –
CCC(C)(C)C(=O)N(C)Cc1cccc(OC(F)(F)F)c1F [Compound 33, N-(2-fluoro-3-(trifluoromethoxy)benzyl)-N,2,2-trimethylbutanamide] | 1 to 100 µM | –
CON(Cc1cc(F)c(F)c(F)c1)C(=O)C(C)(C)C(C)(F)F [Compound S19] | 1 to 100 µM | –
CCC(C)(C)C(=O)N[C@@H](CO)c1ccccc1 [Compound 109, (R)—N-(2-hydroxy-1-phenylethyl)-2,2-dimethylbutanamide] | 1 to 100 µM | –
CCC(C)(C)C(=O)N(C)Cc1ccc(F)c(F)c1 [Compound 91, N-(3,4-difluorobenzyl)-N,2,2-trimethylbutanamide] | – | 0.001 to 1 µM
CCC(C)(C)C(=O)NCc1ccc(F)c(F)c1 [Compound 8, N-(3,4-difluorobenzyl)-2,2-dimethylbutanamide] | 1 to 10 µM | –
CCC(C)(C)C(=O)N(Cc1ccc(F)cc1)OC [Compound 130] | 1 to 100 µM | –
CCC(C)(C)C(=O)N(C)Cc1cccnc1 [Compound 35, N,2,2-trimethyl-N-(pyridin-3-ylmethyl)butanamide] | 1 to 10 µM | –

SMILES | EC50 [1] | EC50 (values given as ranges in nM)
CC(C)NC(=O)N(C)Cc1ccccc1F [Compound 114, 1-(2-fluorobenzyl)-3-isopropyl-1-methylurea] | 1 to 100 µM | –
CCC(C)(C)C(=O)NCc1ccccc1Br [Compound 3, N-(2-bromobenzyl)-2,2-dimethylbutanamide] | 1 to 10 µM | –
CN(Cc1ccccc1F)C(=O)c1ccccc1 [Compound 61, N-(2-fluorobenzyl)-N-methylbenzamide] | 1 to 100 µM | –
CCC(C)(C)C(=O)N[C@@H](CC(=O)NC)c1ccccc1 [Compound 101, (S)-2,2-dimethyl-N-(3-(methylamino)-3-oxo-1-phenylpropyl)butanamide] | 1 to 100 µM | –
CCC(C)(C)C(=O)N(C)C(COC)c1ccccc1 (centres unmarked) [Compound 112, N-(2-methoxy-1-phenylethyl)-N,2,2-trimethylbutanamide] | 1 to 100 µM | –
CON(Cc1ccc(F)cc1)C(=O)C(C)(C)C(C)(F)F [Compound S15] | 1 to 100 µM | –
CCC(C)(C)C(=O)N(C)Cc1c(F)cc(F)cc1F [Compound 48, N,2,2-trimethyl-N-(2,4,6-trifluorobenzyl)butanamide] | 1 to 10 µM | –
CCC(C)(C)C(=O)N(C)Cc1sccc1C [Compound 41, N,2,2-trimethyl-N-((3-methylthiophen-2-yl)methyl)butanamide] | 1 to 10 µM | –
CCC(C)(C)C(=O)N(Cc1cc(F)c(F)cc1F)OC [Compound 133] | 1 to 100 µM | –
CCC(C)(C)C(=O)N(C)Cc1cnc(C)s1 [Compound 44, N,2,2-trimethyl-N-((2-methylthiazol-5-yl)methyl)butanamide] | 1 to 10 µM | –
CN(Cc1ccccc1F)C(=O)C1CC1 [Compound 62, N-(2-fluorobenzyl)-N-methylcyclopropanecarboxamide] | 1 to 100 µM | –
CCC(C)(C)C(=O)N(C)Cc1ccc(OC)nc1 [Compound 38, N-((6-methoxypyridin-3-yl)methyl)-N,2,2-trimethylbutanamide] | 1 to 100 µM | –
CCC(C)(C)C(=O)N(C)Cc1ccc(Cl)cc1F [Compound 27, N-(4-chloro-2-fluorobenzyl)-N,2,2-trimethylbutanamide] | – | 0.001 to 1 µM
CCC(C)(C)C(=O)N[C@@H](CC(=O)NCCc1ccccc1)c1ccccc1 [Compound 108, (S)-2,2-dimethyl-N-(3-oxo-3-(phenethylamino)-1-phenylpropyl)butanamide] | 1 to 100 µM | –
CC1CCCN(C(=O)N(C)Cc2cc(F)cc(F)c2F)C1 (centres unmarked) [Compound 118, N,3-dimethyl-N-(2,3,5-trifluorobenzyl)piperidine-1-carboxamide] | 1 to 100 µM | –
CCC(C)(C)C(=O)N(C)[C@@H](CO)c1cc(F)cc(F)c1F [Compound 149] | 1 to 100 µM | –
CCNC(=O)C[C@H](NC(=O)C(C)(C)CC)c1ccccc1 [Compound 103, (S)—N-(3-(ethylamino)-3-oxo-1-phenylpropyl)-2,2-dimethylbutanamide] | 1 to 100 µM | –
CCC(C)(C)C(=O)N[C@@H](C(=O)NCc1ccccc1)c1ccccc1 [Compound 124, (R)—N-(2-(benzylamino)-2-oxo-1-phenylethyl)-2,2-dimethylbutanamide] | 1 to 100 µM | –
